The values that follow come from US7153881B2, “Compounds acting as melanocortin receptor ligands” (Acure Pharma AB, priority 2001, dated 2006).

The target of data set [1] is T1, MC4 (Homo sapiens, UniProt P32245). Put plainly: Stimulation of cAMP, MC4. The format is cell-based. The conditions noted are these: response given relative to α-MSH. The protocol:
(§1) The stimulation of cAMP was carried out essentially as described by Schiöth et al, Br J Pharmacol 1998; 124; 75–82, however, the response is given relative to α-MSH.

Data set [2] concerns the target T2, MC3 (Homo sapiens, UniProt P41968). Kind of data set: Affinity for the MC3-receptors, binding assay using I125-NDP-αMSH as ligand. How it is done: (§2) Test 2. Affinity for the MC3-receptors, the MC4-receptors and the MC5-receptors
(§3) The binding assays were carried out essentially as described by Szardenings et al, J Biol Chem 1997; 272; 27943–27948 and Schiöth et al, FEBS Lett 1997; 410; 223–228 using I125-NDP-αMSH as ligand.

A further data set concerns the target MC1 (Homo sapiens, UniProt Q01726). Kind of data set: Stimulation of cAMP, MC1. The format is cell-based. The conditions noted are these: response given relative to α-MSH. The protocol: as §1
In data set [3] the target is T2, MC3. Kind of data set: Stimulation of cAMP, MC3. The format is cell-based. As to conditions: response given relative to α-MSH. The protocol: as §1
The next data set concerns the target MC5-receptors (Homo sapiens, UniProt P33032). Kind of data set: Affinity for the MC5-receptors, binding assay using I125-NDP-αMSH as ligand. The protocol:
as §2, §3

For data set [4], the target named is T1, MC4. Kind of data set: Affinity for the MC4-receptors, binding assay using I125-NDP-αMSH as ligand. The protocol: as §2, §3

T1 sequence (P32245 whole entry): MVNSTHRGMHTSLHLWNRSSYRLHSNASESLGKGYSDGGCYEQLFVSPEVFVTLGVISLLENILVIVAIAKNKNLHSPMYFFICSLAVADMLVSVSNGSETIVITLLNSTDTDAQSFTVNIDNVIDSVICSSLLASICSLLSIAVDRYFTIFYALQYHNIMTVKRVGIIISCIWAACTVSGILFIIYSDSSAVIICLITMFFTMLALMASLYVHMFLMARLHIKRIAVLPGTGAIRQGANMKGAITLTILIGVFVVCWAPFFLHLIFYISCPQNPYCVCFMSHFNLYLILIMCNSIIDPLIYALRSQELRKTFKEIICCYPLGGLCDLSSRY
Sequence of MC5-receptors (P33032 whole entry): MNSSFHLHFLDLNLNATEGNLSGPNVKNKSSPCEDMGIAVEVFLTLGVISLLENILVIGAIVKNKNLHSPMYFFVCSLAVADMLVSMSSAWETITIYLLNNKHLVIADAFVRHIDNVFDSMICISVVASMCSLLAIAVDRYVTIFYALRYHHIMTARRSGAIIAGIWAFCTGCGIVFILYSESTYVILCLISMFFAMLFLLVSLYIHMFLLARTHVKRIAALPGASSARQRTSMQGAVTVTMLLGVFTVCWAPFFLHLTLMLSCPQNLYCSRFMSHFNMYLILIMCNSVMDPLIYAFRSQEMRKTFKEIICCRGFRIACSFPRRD
T2 sequence (P41968 whole entry): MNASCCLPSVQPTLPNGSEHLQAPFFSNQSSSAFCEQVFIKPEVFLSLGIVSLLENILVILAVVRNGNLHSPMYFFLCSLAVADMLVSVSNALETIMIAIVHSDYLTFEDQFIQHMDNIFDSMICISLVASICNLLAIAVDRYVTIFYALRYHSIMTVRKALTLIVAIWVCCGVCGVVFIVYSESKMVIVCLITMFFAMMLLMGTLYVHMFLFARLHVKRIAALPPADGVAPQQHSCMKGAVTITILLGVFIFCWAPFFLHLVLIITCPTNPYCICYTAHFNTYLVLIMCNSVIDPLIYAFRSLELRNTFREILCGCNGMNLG
Sequence of MC1 (Q01726 whole entry): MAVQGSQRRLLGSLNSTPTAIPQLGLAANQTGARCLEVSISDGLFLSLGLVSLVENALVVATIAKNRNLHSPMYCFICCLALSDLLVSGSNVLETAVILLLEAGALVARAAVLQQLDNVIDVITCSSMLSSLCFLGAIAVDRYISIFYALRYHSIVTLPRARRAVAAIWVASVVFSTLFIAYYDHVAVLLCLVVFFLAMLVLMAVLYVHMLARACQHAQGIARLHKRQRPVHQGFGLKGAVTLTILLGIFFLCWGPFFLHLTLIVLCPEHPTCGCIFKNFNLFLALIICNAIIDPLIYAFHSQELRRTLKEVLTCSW

For orientation: melting point means the temperature of the solid-liquid transition. `N=C(NN=Cc1ccc([N+](=O)[O-])cc1[N+](=O)[O-])Nc1ccccc1` gave a melting point of 180 to 190 °C.

`COc1ccc(C=NNC(=N)NCc2ccccc2)c(Cl)c1OC` [Compound 1, N-(2-chloro-3,4-dimethoxybenzylideneamino)-N′-benzylguanidine] had a melting point of 215 to 217 °C.

Compound `COc1ccc(C=NNC(=Nc2ccccc2)NO)c(Cl)c1OC` [Compound 2, N-(2-chloro-3,4-dimethoxybenzylideneamino)-N′-hydroxy-N″-phenylguanidine] displayed a melting point of 167 to 169 °C.

`COc1ccc(C=NNC(=N)NCCc2ccccc2)cc1` [Compound 10, N-(4-methoxybenzylideneamino)-N′-(2-phenylethyl)guanidine] yielded a melting point of 126 to 128 °C.

On to `N=C(NCc1cccc2ccccc12)NN=Cc1ccncc1` [Compound 11, N-(pyrid-4-yl-methylideneamino)-N′-(naphthalen-1-yl-methyl)guanidine], for which the melting point lay in the range of 260 to 262 °C.

In the case of `N=C(NCCc1ccccc1)NN=Cc1c[nH]c2ccccc12` [Compound 12, N-(1H-indol-3-ylmethylideneamino)-N′-(2-phenylethyl)guanidine], the melting point was 207 to 209 °C.

As to `N=C(N)N(Cc1cccc2ccccc12)N=Cc1c[nH]c2ccccc12` [Compound 13, N-(1H-indol-3-yl-methylideneamino)-N-(naphthalen-1-ylmethyl)guanidine], the melting point lay in the range of 213 to 215 °C.

As for `N=C(NN=Cc1c[nH]c2ccccc12)NN=Cc1c[nH]c2ccccc12` [Compound 14, N,N′-bis[1H-indol-3-yl-methylideneamino]guanidine], the melting point fell in the range of 296 to 298 °C.

Take `COc1ccc(C=NNC(=N)Nc2ccccc2)c(Cl)c1OC` [Compound 16, N-(2-chloro-3,4-dimethoxybenzylideneamino)-N′-phenylguanidine]: the melting point lay in the range of 179 to 181 °C.

`N=C(NN=Cc1cc([N+](=O)[O-])ccc1F)Nc1ccccc1` [Compound 17, N-(2-fluoro-5-nitrobenzylideneamino)-N′-phenylguanidine]: the melting point lay in the range of 191 to 193 °C.

For `N=C(NCc1ccccc1)NN=Cc1ccc(O)cc1` [Compound 18, N-(4-hydroxybenzylideneamino)-N′-benzylguanidine], the melting point is 192 to 194 °C.

The compound `N=C(NCCc1ccccc1)NN=Cc1ccc([N+](=O)[O-])cc1` [Compound 20, N-(4-nitrobenzylideneamino)-N′-(2-phenylethyl)guanidine] came in with a melting point of 241 to 243 °C.

Compound `N=C(NCCc1ccccc1)NN=Cc1ccc2ccccc2c1` [Compound 21, N-(naphthalen-2-yl-methylideneamino)-N′-(2-phenylethyl)guanidine] had a melting point of 244 to 246 °C.

With `N=C(NN=Cc1ccc2ccccc2c1)Nc1ccc2ccccc2c1` [Compound 23, N-(naphthalen-2-yl-methylideneamino)-N′-naphthalen-2-ylguanidine], the melting point lay in the range of 218 to 220 °C.

In turn, `N=C(NCc1ccccc1)NN=Cc1ccc([N+](=O)[O-])cc1` [Compound 24, N-(4-Nitrobenzylideneamino)-N′-benzylguanidine] gave a melting point of 239 to 241 °C.

Broadly, the Ki is a measure of affinity in units of concentration, obtained from inhibition or displacement. A lower Ki goes with a stronger hold on the target. Take `N=C(NCCc1ccccc1)NN=Cc1ccccc1Br` [Compound 27, N-(2-Bromobenzylideneamino)-N′-phenethylguanidine]: the melting point is 154 to 155 °C. Moreover, on MC4 [1], the “cAMP agonist/plateau stim. α-MSH (%) MC4” value came out at 97%. Further, the Ki on MC3 [2] was 7.96 µM. The “cAMP agonist/plateau stim. α-MSH (%) MC1” value at MC1 was 12%. On MC3 [3], the “cAMP agonist/plateau stim. α-MSH (%) MC3” value stood at 9%. Also, on MC5-receptors, the inhibition constant Ki amounted to 5.8 µM. Further, affinity at MC4 [4] was put at a Ki of 1.35 µM.

Turning to `N=C(NN=Cc1ccccc1Br)Nc1ccccc1` [Compound 28, N-(2-Bromobenzylideneamino)-N′-phenylguanidine], the melting point is 149 to 152 °C.

`N=C(NCc1ccccc1)NN=Cc1cccn1-c1ccc(Cl)cc1` [Compound 29, N-[1-(4-Chlorophenyl) 1H-pyrrol-2-ylmethyleneamino]-N′-benzylguanidine]: the melting point is 190 to 192 °C. Besides, the “cAMP agonist/plateau stim. α-MSH (%) MC4” value on MC4 [1] turned out to be 111%. Besides, the “cAMP agonist/plateau stim. α-MSH (%) MC1” value on MC1 is on record as 10%. In addition, the “cAMP agonist/plateau stim. α-MSH (%) MC3” value on MC3 [3] was found to be 3%. In addition, the affinity on MC5-receptors, expressed as Ki, was 1.32 µM. This compound came in with a Ki at MC4 [4] of 0.61 µM.

For the compound `N=C(NN=Cc1cccc2ccccc12)NN=Cc1cccc2ccccc12` [Compound 30, N,N′-Di-(naphthalen-1-ylmethyleneamino)guanidine], the melting point fell in the range of 253 to 255 °C.

In turn, `COc1ccc(C=NNC(=N)NN=Cc2ccc(OC)c(OC)c2Cl)c(Cl)c1OC` [Compound 32, N,N′-Di-(2-Chloro-3,4-Dimethoxybenzylideneamino)guanidine] showed a melting point of 228 to 230 °C.

`N=C(NCCc1ccccc1)NN=CC=Cc1ccccc1` [Compound 33] registered a melting point of 175 to 177 °C. For the same compound, the “cAMP agonist/plateau stim. α-MSH (%) MC4” value on MC4 [1] is listed as 161%. Moreover, the inhibition constant (Ki) at MC3 [2] stood at 5.36 µM. In addition, at MC1, the “cAMP agonist/plateau stim. α-MSH (%) MC1” value worked out at 8%. Moreover, the “cAMP agonist/plateau stim. α-MSH (%) MC3” value at MC3 [3] stood at 4%. The same compound came in with a Ki at MC5-receptors of 8.23 µM. Further, at MC4 [4], the Ki turned out to be 3.59 µM.

On to `N=C(NN=Cc1cccn1-c1ccc(Cl)cc1)NN=Cc1cccn1-c1ccc(Cl)cc1` [Compound 34, N,N′-Di-(1-(4-Chlorophenyl)-1H-pyrrol-2-ylmethyleneamino)guanidine], for which the melting point was 221 to 223 °C.

The compound `CNC(=N)NN=Cc1cc([N+](=O)[O-])ccc1F` [Compound 35, N-(2-Fluoro-5-nitrobenzylideneamino)-N′-methylguanidine] displayed a melting point of 217 to 219 °C.

`CNC(=N)NN=Cc1ccc(OC)c(OC)c1Cl` [Compound 37, N-(2-Chloro-3,4-dimethoxybenzylideneamino)-N′-methylguanidine] gave a melting point of 207 to 210 °C.
